Paper PMC5308254, “Bioactivity of Natural and Engineered Antimicrobial Peptides from Venom of the Scorpions Urodacus yaschenkoi and U. manicatus” (Toxins, 2017)
No end group written: not given here.

How the values were obtained:
[1] = test system: Micrococcus luteus (DSM20030); experiment: Growth inhibition assay (MIC), M. luteus; format: cell-based; conditions: 384-well plates, LB, 30 °C, peptide 0.015–250 µM; MIC = concentration at which growth was totally inhibited; average of n ≥ 3; dash = no inhibition
Experimental: (§1) The minimal inhibitory concentration (MIC) of each AMPs was determined against the Gram-positive bacteria Listeria monocytogenes (DSM20600), L. grayi (DSM20601), L. fleischmannii (DSM24998), Staphylococcus aureus (DSM2569) and Micrococcus luteus (DSM20030), and the Gram-negative species Escherichia coli (D31) and Pseudomonas aeruginosa (DSM50071). The scorpion peptides were prepared at concentrations of 0.015–250 μM. The assays were carried out in 384-well plates (Greiner Bio One, Frickenhausen, Germany) using Brain Heart Infusion Broth (BHIB) medium for Listeria spp., Tryptic Soy Broth (TSB) for S. aureus, and lysogeny broth (LB) for the others. The bacteria were cultivated overnight at either 37 °C (Listeria spp., S. aureus, E. coli and P. aeruginosa) or 30 °C (M. luteus) and subcultured in fresh media before the growth inhibition assays. Growth inhibition was measured as previously described.

[2] = test system: Staphylococcus aureus (DSM2569); experiment: Growth inhibition assay (MIC), S. aureus; format: cell-based; conditions: 384-well plates, TSB, 37 °C, peptide 0.015–250 µM; growth totally inhibited; average of n ≥ 3; dash = no inhibition
Experimental: as §1

Escherichia coli (D31) = experiment: Growth inhibition assay (MIC), E. coli; format: cell-based; conditions: 384-well plates, LB, 37 °C, peptide 0.015–250 µM; growth totally inhibited; average of n ≥ 3; dash = no inhibition
Experimental: as §1

[3] = test system: baby hamster kidney cells (BHK21); experiment: Cytotoxicity, alamarBlue, BHK-21 cells; format: cell-based; conditions: 2 h at 37 °C, 0.1–100 µM, alamarBlue fluorescence, non-linear fit, n ≥ 3
Experimental: (§2) Cytotoxicity was evaluated using the baby hamster kidney cell line (BHK-21) included in F2H®-Kit Basic (Chromotek, Planegg-Martinsried, Germany). The BHK-21 cells were grown in 25-cm^2 cell culture flasks (Greiner Bio One, Frickenhausen, Germany) containing Dulbecco’s Modified Eagle’s Medium (DMEM) supplemented with 4.5 g/L glucose, 110 mg/L sodium pyruvate and L-glutamine, and 10% fetal bovine serum (FBS), and were maintained in an NU-5810 incubator (ibs tecnomara, Fernwald, Germany) at 37 °C with a 5% CO2 atmosphere. The cells were subcultured at ~90% confluence by detaching with 0.25% trypsin and 0.03% EDTA (Sigma-Aldrich, St Louis, MO, USA). The AMPs were dissolved in water and diluted to final concentrations of 0.1, 1, 10 and 100 µM in DMEM.
(§3) BHK-21 cells were prepared and tested as previously described. Confluent cells were detached, counted and seeded at a concentration of 8.5 × 10^4 cell/mL in a 96-well culture plate (Greiner Bio One-Cell Star) 48 h before each experiment. The cells were rinsed with 100 µL PBS before adding 100 µL of the AMP solution and incubating for 2 h at 37 °C. The AMP solution was then removed and the cells were rinsed again with PBS before staining with 10% v/v alamarBlue™ Dye (Thermo Fisher Scientific, Schwerte, Germany) in DMEM for 1 h. The fluorescence of the metabolized alamarBlue™ Dye was measured in an Eon microplate reader using excitation and emission filters of 528 and 590 nm, respectively. DMEM and cells exposed to DMEM without AMPs were included as a blank reference and negative control, respectively. Four independent experiments were carried out for each AMP concentration in triplicate. To assess the percentage of viable cells compared to the control, the data were analyzed with GraphPad Prism v5.0 software using non-linear regression to fit the curve (Figure S2). The EC50 was reported as the AMP concentration that reduces cell viability by 50%.

[4] = Cytotoxicity, alamarBlue, BHK-21 cells; format: cell-based, hamster; conditions: hamster, 2 h at 37 °C, 0.1–100 µM, alamarBlue fluorescence, non-linear fit, concentration reducing viability by 50%, n ≥ 3, read-out: EC50 (effective cytotoxic concentration)
Experimental: as §2, §3

[5] = test system: Listeria monocytogenes (DSM20600); experiment: Growth inhibition assay (MIC), L. monocytogenes; format: cell-based; conditions: 384-well plates, BHIB, 37 °C, peptide 0.015–250 µM; growth totally inhibited; average of n ≥ 3; dash = no inhibition
Experimental: as §1

[6] = test system: L. fleischmannii (DSM24998); experiment: Growth inhibition assay (MIC), L. fleischmannii; format: cell-based, Listeria fleischmannii; conditions: 384-well plates, BHIB, 37 °C, peptide 0.015–250 µM; growth totally inhibited; average of n ≥ 3; dash = no inhibition
Experimental: as §1

L. grayi (DSM20601) = experiment: Growth inhibition assay (MIC), L. grayi; format: cell-based, Listeria grayi; conditions: 384-well plates, BHIB, 37 °C, peptide 0.015–250 µM; growth totally inhibited; average of n ≥ 3; dash = no inhibition
Experimental: as §1

pig erythrocytes = experiment: Hemolytic activity on pig erythrocytes; format: cell-based; conditions: for HC10 (hemolytic concentration) / HC90 (hemolytic concentration) / HC50 (hemolytic concentration) / percentage of hemolysis: 1 h at 37 °C; for HC10 (hemolytic concentration) / HC90 (hemolytic concentration) / HC50 (hemolytic concentration): 6.25–100 µM, absorbance 570 nm, non-linear fit; for HC10 (hemolytic concentration) / HC90 (hemolytic concentration): n ≥ 3; for HC50 (hemolytic concentration): n ≥ 3, n.c. (100) = not convergent at 100 µM; for percentage of hemolysis: 100 µM peptide (highest tested), 10% Triton X-100 = 100% hemolysis
Experimental: The hemolytic activity of each AMP was determined using pig erythrocytes. Serial dilutions (6.25–100 µM) of each AMP were prepared, and after incubation for 1 h at 37 °C the cells were centrifuged and the absorbance of the supernatant was measured at 570 nm using an Eon Microplate Spectrophotometer (BioTek Instruments, Winooski, VT, USA). Three independent experiments were carried out for each concentration in triplicate. PBS and 10% Triton X–100 were used as negative and positive controls, respectively. The percentage hemolysis was calculated using the formula 100((Apeptide–APBS)/(Atriton–APBS)). The AMP concentration causing 50% hemolysis (HC50) of the pig erythrocytes was determined by non-linear regression with the data fitted to the logistical sigmoidal equation, using GraphPad Prism v5.0 (GraphPad Software, San Diego, CA, USA) (Figure S2).

seven different bacteria = experiment: Antibacterial activity against all seven bacteria tested (summary); format: cell-based; conditions: approximate overall value
Experimental: as §1

Substance	MIC M. luteus [1] [µM]	MIC S. aureus [2] [µM]	MIC E. coli (Escherichia coli (D31)) [µM]	EC10 (effective cytotoxic concentration) [3] [µM]	EC90 (effective cytotoxic concentration) [3] [µM]	CC50 at 2 h [4] [µM]	MIC L. monocytogenes [5] [µM]	MIC L. fleischmannii [6] [µM]	MIC L. grayi (L. grayi (DSM20601)) [µM]	HC10 (hemolytic concentration) (pig erythrocytes) [µM]	HC90 (hemolytic concentration) (pig erythrocytes)	HC50 (hemolytic concentration) (pig erythrocytes) [µM]	percentage of hemolysis (pig erythrocytes)	hemolytic activity (in words) (pig erythrocytes)	MIC against all seven bacteria tested (seven different bacteria)
FFSALLSGIKSLF-NH2 [Um4]	8	15	8	3.22	261	87	8	4	15	–	–	–	–	–	–
FLSTIWNGIKGLL-NH2 [Uy192]	15	15	15	1.92	155.90	52	8	4	15	35.85	675.22 µM	155.6	–	–	–
FLSTIWNGIKSLF-NH2 [D2]	4	8	–	13.95	1130	377	15	15	–	2.94	200.83 µM	24.48	64%	–	–
FPFLKLSLKIPKSAIKSAIKRL-NH2 [D10]	0.25	–	8	5.24	424.30	141	30	30	8	149.75	19,894.17 µM	1726	~ 10%	–	–
FPFLLSLIPSAISAIKRL-NH2 [Uy234]	2	–	–	0.23	18.86	6.29	2	–	4	55.14	198.04 µM	104.50	–	–	–
GFWGKLLEGVKKAI-NH2 [D5]	8	–	15	2.50	202.90	67.6	15	15	8	110.86	24,141.72 µM	1636	~ 10%	–	–
GFWGKLWEGVKSAI-NH2 [Um3]	2	15	15	2.359	191.1	63.7	8	4	4	70.48	246.84 µM	126.2	–	–	–
GFWGKLWKPVKKAI-NH2 [D4]	2	–	–	36.30	2940	980	30	15	8	–	–	–	–	no hemolytic activity	–
GFWKGKLWKEGVKNAIK [D12, engineered AMP based on UyCT1 but with distributed lysine residues]	–	–	–	–	–	–	–	–	–	–	–	–	–	–	totally inactive
IFGAIWSGIKSLF-NH2 [D1]	4	–	8	0.69	55.75	18.6	4	4	8	15.50	148.51 µM	48	–	–	–
IFKAIWSGIKSLF-NH2 [Um5]	2	–	15	0.36	29.12	9.71	2	2	2	11.944	293.90 µM	59.25	–	–	–
ILSAIWSGIKGLL-NH2 [Uy17]	15	30	–	2.73	220.80	73.6	15	–	–	26.65	718.55 µM	138.40	–	–	–
ILSAIWSGIKSLF-NH2 [UyCT3]	4	–	8	0.57	46.12	15.4	4	4	8	15.78	214.22 µM	58.15	–	–	–
ISQSDAILSAIWSGIKSLF-NH2 [Um2]	4	–	–	0.58	47.12	15.7	–	–	–	2.36	7033.22 µM	129	–	–	–
IWSAIWSGIKGLL-NH2 [UyCT5]	4	8	15	0.91	73.65	24.6	4	8	8	2.39	177.49 µM	20.59	70%	–	–
